Data taken from patent US20050004126A1 (priority 2001, published 2005).
Counter-ions that a name gives are not always drawn. Like-named read-outs stand apart in the source and are kept apart here. Blank lines part the entries; values can stand above or below the compound they belong to.

How the values were obtained:
[1] = target: T1, MMP-13CD (catalytic domain of collagenase 3) (Homo sapiens, UniProt P45452); test: biochemical;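 further: inhibition of enzymatic thiopeptolide substrate cleavage (100 µM) in pH 6.0 MES buffer with CaCl2 and DTNB, comparing hydrolysis with versus without inhibitor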
Description: (§1) They measure the amount by which a test compound reduces the hydrolysis of a thiopeptolide substrate caused by a matrix metalloproteinase enzyme.
(§2) Thiopeptolide substrates show virtually no decomposition or hydrolysis in the absence of a matrix metalloproteinase enzyme. A typical thiopeptolide substrate commonly utilized for assays is Ac-Pro-Leu-Gly-thioester-Leu-Leu-Gly-OEt. A 100 μL assay mixture will contain 50 mM of 2-morpholinoethane sulfonic acid monohydrate (MES, pH 6.0) 10 mM CaCl2, 100 μM thiopeptolide substrate, and 1 mM 5,5′-dithio-bis-(2-nitro-benzoic acid) (DTNB). […] Assays are carried out with and without matrix metalloproteinase inhibitor compounds, and the amount of hydrolysis is compared for a determination of inhibitory activity of the test compounds.

[2] = target: T2, MMP-1FL (full-length interstitial collagenase) (Homo sapiens, UniProt P03956); test: Thiopeptolide hydrolysis assay, MMP-1; type: biochemical; conditions: read-out: MMP01 IC50
T2 sequence (P03956 100-469): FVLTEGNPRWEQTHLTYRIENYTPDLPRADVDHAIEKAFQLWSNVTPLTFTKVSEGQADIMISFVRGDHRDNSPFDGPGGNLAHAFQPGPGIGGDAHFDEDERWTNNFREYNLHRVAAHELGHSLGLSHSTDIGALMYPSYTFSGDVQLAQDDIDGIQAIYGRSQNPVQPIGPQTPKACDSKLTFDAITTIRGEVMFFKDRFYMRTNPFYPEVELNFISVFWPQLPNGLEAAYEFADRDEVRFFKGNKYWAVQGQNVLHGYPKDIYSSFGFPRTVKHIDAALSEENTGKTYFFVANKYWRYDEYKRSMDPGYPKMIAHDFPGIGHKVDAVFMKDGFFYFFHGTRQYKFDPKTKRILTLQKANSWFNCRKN
Description: as §1
Thiopeptolide substrates show virtually no decomposition or hydrolysis in the absence of a matrix metalloproteinase enzyme. A typical thiopeptolide substrate commonly utilized for assays is Ac-Pro-Leu-Gly-thioester-Leu-Leu-Gly-OEt. A 100 μL assay mixture will contain 50 mM of 2-morpholinoethane sulfonic acid monohydrate (MES, pH 6.0) 10 mM CaCl2, 100 μM thiopeptolide substrate, and 1 mM 5,5′-dithio-bis-(2-nitro-benzoic acid) (DTNB). […] The change in absorbance at 405 nm is monitored on a Thermo Max microplate reader (moleucular Devices, Menlo Park, Calif.) at room temperature (22° C.). […] Assays are carried out with and without matrix metalloproteinase inhibitor compounds, and the amount of hydrolysis is compared for a determination of inhibitory activity of the test compounds.

[3] = target: T1, MMP-13CD (catalytic domain of collagenase 3); test: Thiopeptolide hydrolysis assay, MMP-13;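 further: inhibition of enzymatic thiopeptolide substrate cleavage (100 µM) in pH 6.0 MES buffer with CaCl2 and DTNB, comparing hydrolysis with versus without inhibitor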
Description: as §1, §2

[4] = target: MMP-3CD (catalytic domain of stromelysin) (Homo sapiens, UniProt P08254); test: Thiopeptolide hydrolysis assay, MMP-3; type: biochemical;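 further: inhibition of thiopeptolide substrate (100 µM) cleavage by the MMP-3 catalytic domain, detected with DTNB at pH 6.0 with CaCl2, hydrolysis compared against runs lacking inhibitor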
Sequence of MMP-3CD (catalytic domain of stromelysin) (P08254 100-272 limits assumed): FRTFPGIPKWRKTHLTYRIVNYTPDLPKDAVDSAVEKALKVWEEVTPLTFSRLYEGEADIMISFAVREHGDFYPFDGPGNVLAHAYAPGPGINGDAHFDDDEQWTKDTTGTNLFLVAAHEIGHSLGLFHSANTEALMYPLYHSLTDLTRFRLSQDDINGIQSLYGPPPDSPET
Description: as §1, §2

SMILES: COc1ccc(CNC(=O)c2ccc3c(c2)c(=O)n(Cc2ccc(OC)cc2)c(=O)n3C)cc1 [Synthesis Example 29, 3-(4-Methoxybenzyl)-1-methyl-2,4-dioxo-1,2,3,4-tetrahydroquinazoline-6-carboxylic acid 4-methoxybenzylamide]
IC50 [1]: 10 nM

SMILES: COc1ccc(Cn2c(=O)[nH]c3ccc(C(=O)NCc4ccc5c(c4)OCO5)cc3c2=O)cc1 [Synthesis Example 27, 3-(4-Methoxybenzyl)-2,4-dioxo-1,2,3,4-tetrahydroquinazoline-6-carboxylic acid (benzo[1,3]dioxol-5-ylmethyl)amide]
IC50 [1]: 15 nM

SMILES: O=C(NCc1cccnc1)c1ccc2[nH]c(=O)n(Cc3ccccc3)c(=O)c2c1 [3-Benzyl-2,4-dioxo-1,2,3,4-tetrahydroquinazoline-6-carboxylic acid (3-pyridylmethyl)amide]
IC50 [1]: 366 nM

SMILES: Cn1c(=O)n(Cc2ccccc2)c(=O)c2cc(C(=O)OCc3ccc4c(c3)OCO4)ccc21 [Synthesis Example 46, Benzo[1,3]dioxol-5-ylmethyl 3-benzyl-1-methyl-2,4-dioxo-1,2,3,4-tetrahydroquinazoline-6-carboxylate]
IC50 [1]: 2.5 nM

SMILES: O=C(NCc1ccc2c(c1)OCO2)c1ccc2[nH]c(=O)n(Cc3ccncc3)c(=O)c2c1 [2,4-Dioxo-3-pyrid-4-ylmethyl-1,2,3,4-tetrahydroquinazoline-6-carboxylic acid (benzo[1,3]dioxol-5-ylmethyl)amide]
IC50 [1]: 51 nM

SMILES: O=C(OCc1ccccc1)c1ccc2c(c1)c(=O)n(Cc1ccncc1)c(=O)n2Cc1ccccc1 [Benzyl 1-benzyl-2,4-dioxo-3-pyrid-4-ylmethyl-1,2,3,4-tetrahydroquin-azoline-6-carboxylate]
IC50 [1]: 1210 nM

SMILES: Cc1ccc(CNC(=O)c2cn3c(=O)n(Cc4ccccc4)c(=O)c(C)c3s2)cc1
IC50 ([2]; Table 1b): > 30000 nM | IC50 ([3]; MMP13 IC50 (μM), Table 1b): 0.225 µM | IC50 ([4]; Table 1b, read-out: MMP03 IC50): 19000 nM

SMILES: Cc1c(=O)n(Cc2cccc(C#N)c2)c(=O)n2cc(C(=O)NCc3ccncc3)sc12 [hydrochloride]
IC50 ([2]; Table 1b): > 30000 nM | IC50 ([3]; MMP13 IC50 (μM), Table 1b): 0.173 µM | IC50 ([4]; Table 1b, read-out: MMP03 IC50): > 30000 nM

SMILES: COc1cccc(CNC(=O)c2cccc(C(=O)NCc3cccnc3)c2)c1
IC50 ([2]; Table II): > 100000 nM | IC50 ([3]; MMP13 IC50 (nM), Table II): 7.93 µM | IC50 ([4]; Table II, read-out: MMP03 IC50): > 100000 nM

SMILES: Cc1c(=O)n(Cc2ccccc2)c(=O)n2cc(C(=O)NCc3ccc(C(F)(F)F)cc3)sc12
IC50 ([2]; Table 1b): > 30000 nM | IC50 ([3]; MMP13 IC50 (μM), Table 1b): 2.21 µM | IC50 ([4]; Table 1b, read-out: MMP03 IC50): > 100000 nM

SMILES: COc1cc(CNC(=O)c2cccc(C(=O)NCc3ccc(F)c(OC)c3)c2)ccc1F [N,N′-Bis-(4-fluoro-3-methoxy-benzyl)-isophthalamide]
IC50 ([2]; Table II): > 100000 nM | IC50 ([3]; MMP13 IC50 (nM), Table II): 0.93 µM | IC50 ([4]; Table II, read-out: MMP03 IC50): > 100000 nM

SMILES: O=C(NCc1ccccc1)c1cccc(C(=O)NCc2ccc3c(c2)OCO3)c1
IC50 ([2]; Table II): > 100000 nM | IC50 ([3]; MMP13 IC50 (nM), Table II): 1.9 µM | IC50 ([4]; Table II, read-out: MMP03 IC50): > 100000 nM

SMILES: Cc1c(=O)n(Cc2ccc(C(=O)OCCN(C)C)cc2)c(=O)n2cc(C(=O)NCc3ccncc3)sc12 [dihydrochloride]
IC50 ([2]; Table 1b): > 100000 nM | IC50 ([3]; MMP13 IC50 (μM), Table 1b): 0.235 µM | IC50 ([4]; Table 1b, read-out: MMP03 IC50): > 100000 nM

SMILES: COc1ccc(CNC(=O)c2cccc(C(=O)NCc3ccc4c(c3)OCO4)c2)cc1
IC50 ([2]; Table II): > 100000 nM | IC50 ([3]; MMP13 IC50 (nM), Table II): 1.65 µM | IC50 ([4]; MMP03 IC50 (nM), Table II): > 100000 nM

SMILES: Cc1c(=O)n(Cc2ccccc2)c(=O)n2cc(C(=O)NCc3cccc(F)c3)sc12
IC50 ([2]; Table 1b): > 30000 nM | IC50 ([3]; MMP13 IC50 (μM), Table 1b): 0.12 µM | IC50 ([4]; Table 1b, read-out: MMP03 IC50): > 30000 nM

SMILES: O=C(NCc1ccccc1)c1cn2c(=O)n(Cc3ccncc3)c(=O)cc2s1 [hydrochloride]
IC50 ([2]; Table 1b): > 100000 nM | IC50 ([3]; MMP13 IC50 (μM), Table 1b): 1.8 µM | IC50 ([4]; Table 1b, read-out: MMP03 IC50): > 100000 nM

SMILES: O=C(NCc1ccncc1)c1cn2c(=O)n(Cc3ccccc3)c(=O)cc2s1 [hydrochloride]
IC50 ([2]; Table 1b): > 100000 nM | IC50 ([3]; MMP13 IC50 (μM), Table 1b): 0.49 µM | IC50 ([4]; Table 1b, read-out: MMP03 IC50): 68000 nM

Continued, values first:

IC50 [1]: 600 nM
SMILES: CC(C)Cn1c(=O)n(Cc2ccccc2)c(=O)c2cc(C(=O)NCc3ccc4c(c3)OCO4)ccc21 [3-Benzyl-1-isobutyl-2,4-dioxo-1,2,3,4-tetrahydroquinazoline-6-carboxylic acid (benzo[1,3]dioxol-5-ylmethyl)amide]

IC50 [1]: 11 nM
SMILES: O=C(OCc1ccncc1)c1ccc2[nH]c(=O)n(Cc3ccccc3)c(=O)c2c1 [Synthesis Example 43, 4-Pyridylmethyl 3-benzyl-2,4-dioxo-1,2,3,4-tetrahydroquinazoline-6-carboxylate]

IC50 [1]: 51 nM
SMILES: Cn1c(=O)n(Cc2ccccc2)c(=O)c2cc(C(=O)NCc3ccncc3)ccc21 [3-Benzyl-1-methyl-2,4-dioxo-1,2,3,4-tetrahydroquinazoline-6-carboxylic acid (4-pyridylmethyl)amide]

IC50 [1]: 29 nM
SMILES: O=C(NCc1ccc2c(c1)OCO2)c1ccc2[nH]c(=O)n(Cc3cccs3)c(=O)c2c1 [Synthesis Example 30, 2,4-Dioxo-3-(thien-2-ylmethyl)-1,2,3,4-tetrahydroquinazoline-6-carboxylic acid (benzo[1,3]dioxol-5-ylmethyl)amide]

IC50 [1]: 193 nM
SMILES: O=C(NCc1ccccc1)c1ccc2[nH]c(=O)n(Cc3ccccc3)c(=O)c2c1 [Synthesis Example 22, 3-Benzyl-2,4-dioxo-1,2,3,4-tetrahydroquinazoline-6-carboxylic acid benzylamide]

IC50 [1]: 1320 nM
SMILES: Cc1ccc(CNC(=O)c2ccc3[nH]c(=O)n(Cc4ccccc4)c(=O)c3c2)cc1 [3-Benzyl-2,4-dioxo-1,2,3,4-tetrahydroquinazoline-6-carboxylic acid 4-methylbenzylamide]

IC50 [1]: 9 nM
SMILES: COc1ccc(Cn2c(=O)c3cc(C(=O)NCc4ccc5c(c4)OCO5)ccc3n(C)c2=O)cc1 [Synthesis Example 28, 3-(4-Methoxybenzyl)-1-methyl-2,4-dioxo-1,2,3,4-tetrahydroquinazoline-6-carboxylic acid (benzo[1,3]dioxol-5-ylmethyl)amide]

IC50 [1]: 29 nM
SMILES: O=C(OCc1ccccc1)c1ccc2[nH]c(=O)n(Cc3ccccc3)c(=O)c2c1 [Synthesis Example 41, Benzyl 3-benzyl-2,4-dioxo-1,2,3,4-tetrahydroquinazoline-6-carboxylate]

IC50 [1]: 157 nM
SMILES: O=C(NCc1ccc2c(c1)OCO2)c1ccc2c(c1)c(=O)n(Cc1ccccc1)c(=O)n2CC1CC1 [3-Benzyl-1-cyclopropylmethyl-2,4-dioxo-1,2,3,4-tetrahydroquin-azoline-6-carboxylic acid (benzo[1,3]dioxol-5-ylmethyl)amide]

IC50 ([2]; Table 1b): > 30000 nM | IC50 ([3]; MMP13 IC50 (μM), Table 1b): 0.0175 µM | IC50 ([4]; Table 1b, read-out: MMP03 IC50): > 10000 nM
SMILES: COc1ccc(CNC(=O)c2cn3c(=O)n(Cc4ccccc4)c(=O)c(C)c3s2)cn1

IC50 ([2]; Table II): > 100000 nM | IC50 ([3]; MMP13 IC50 (nM), Table II): 1.35 µM | IC50 ([4]; Table II, read-out: MMP03 IC50): > 100000 nM
SMILES: COc1cccc(CNC(=O)c2cccc(C(=O)NCc3cccc(OC)c3)c2)c1 [N,N′-Bis-(3-methoxy-benzyl)-isophthalamide]

IC50 ([2]; Table II): > 100000 nM | IC50 ([3]; MMP13 IC50 (nM), Table II): 3.4 µM | IC50 ([4]; Table II, read-out: MMP03 IC50): > 100000 nM
SMILES: O=C(NCc1ccc2c(c1)OCO2)c1cccc(C(=O)NCc2ccco2)c1

IC50 ([2]; Table II): 30000 nM | IC50 ([3]; MMP13 IC50 (nM), Table II): 0.155 µM | IC50 ([4]; Table II, read-out: MMP03 IC50): 21000 nM
SMILES: COc1ccc(C(=O)NCc2ccc3nsnc3c2)cc1C(=O)NCc1ccc2nsnc2c1

IC50 ([2]; Table II): > 100000 nM | IC50 ([3]; MMP13 IC50 (nM), Table II): 7.83 µM | IC50 ([4]; Table II, read-out: MMP03 IC50): > 30000 nM
SMILES: O=C(OCc1cccc(F)c1)c1cccc(C(=O)OCc2cccc(F)c2)c1 [Isophthalic acid bis-(3-fluoro-benzyl) ester]

IC50 ([2]; Table 1b): > 100000 nM | IC50 ([3]; MMP13 IC50 (μM), Table 1b): 0.0106 µM | IC50 ([4]; Table 1b, read-out: MMP03 IC50): 65000 nM
SMILES: COC(=O)c1ccc(Cn2c(=O)c(C)c3sc(C(=O)NCc4ccc(OC)cc4)cn3c2=O)cc1
